These results are taken from PubChem BioAssay (NCI).

Some test systems named below: ACHN renal; COLO 205 colon; HCT-15 colon; HOP-62 NSCLC; KM12 colon; NCI-H226 lung; SF-539 CNS; SNB-19 CNS; U251 CNS; UO-31 renal.
Holding throughout (test): NCI anticancer screen, dose series, 48 h

Values joined by “and” are separate entries in the source; they are usually repeats but may differ in a detail not shown here. Identical values can stand only once.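 1) Cells in 96-well plates. 2) Compound, 48 h, 5 concentrations. 3) Linear interpolation between surrounding doses. 4) Unreached endpoint = highest concentration. GI50 = concentration required for 50% inhibition of growth. The concentration for full growth arrest is given as TGI.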

In the case of `CC[C@H](C)[C@H](NC(=O)C12C3C4C1C1C2C3C41NC(C)=O)C(=O)N(C)[C@H](C[C@@H](OC(C)=O)c1nc(C(=O)N[C@@H](Cc2ccccc2)C[C@H](C)C(=O)OC)cs1)C(C)C` (stereo not given in full), the GI50 with ACHN renal is 2.53 µM; with COLO 205 colon, 0.346 µM; with HCT-15 colon, 2.41 µM; in the assay on HOP-62 NSCLC it was 0.618 µM; with KM12 colon it was 0.471 µM; in the assay on NCI-H226 lung, above 9.71 µM. For the same compound, the GI50 was 0.349 µM in the assay on SF-539 CNS, 0.578 µM with SNB-19 CNS, 0.434 µM with U251 CNS and 8.55 µM in the assay on UO-31 renal. Moreover, the TGI in the assay with ACHN renal was above 14.3 µM; with COLO 205 colon, 1.71 µM; with HCT-15 colon it was above 14.3 µM; in the assay with HOP-62 NSCLC, above 14.3 µM; in the assay with KM12 colon, above 14.3 µM; in the assay with NCI-H226 lung, above 14.3 µM. For the same compound, the TGI in the assay with SF-539 CNS is 1.01 µM; in the assay on SNB-19 CNS it was above 14.3 µM; in the assay on U251 CNS it was above 14.3 µM; with UO-31 renal, above 14.3 µM.
On to `COc1cc(C2C(C#N)=C(N)OC3=C2C(=O)c2ccccc2C3=O)cc(OC)c1OC` (stereo not given), for which the GI50 in the assay with ACHN renal is 0.571 µM; with COLO 205 colon, 3.55 µM; in the assay on HCT-15 colon it was 1.45 µM; in the assay on HOP-62 NSCLC it was 0.961 µM; with KM12 colon, 0.728 µM; in the assay on NCI-H226 lung it was 1.39 µM. Also, the GI50 with SF-539 CNS is 0.344 µM; in the assay on SNB-19 CNS, 11.2 µM; with U251 CNS, 3.38 µM; in the assay on UO-31 renal it was 2.79 µM. The TGI with ACHN renal was 16.6 µM; with COLO 205 colon, 19.7 µM; in the assay on HCT-15 colon it was 18.5 µM; in the assay with HOP-62 NSCLC, 17.7 µM; with KM12 colon it was above 100 µM; in the assay with NCI-H226 lung, 23.7 µM. Besides, the TGI in the assay with SF-539 CNS is 4.56 µM; in the assay with SNB-19 CNS, above 100 µM; in the assay with U251 CNS, 44 µM; with UO-31 renal it was 21.3 µM.
For `COc1ccc(NC(=O)c2cc(OC)c(OC)c(OC)c2)cc1O`, the GI50 with ACHN renal was 13.6 µM; in the assay on COLO 205 colon, 4.45 µM; in the assay on HCT-15 colon, 1.46 µM; with HOP-62 NSCLC, 5.36 µM; in the assay on KM12 colon it was 0.792 µM; with NCI-H226 lung it was 13.8 µM. Moreover, the GI50 in the assay on SF-539 CNS was 2.75 µM; in the assay with SNB-19 CNS it was 4.73 µM; in the assay with U251 CNS, 3.71 µM; with UO-31 renal, 18.1 µM. Further, the TGI in the assay on ACHN renal, with COLO 205 colon, with HCT-15 colon, in the assay on HOP-62 NSCLC, in the assay on KM12 colon and with NCI-H226 lung was above 100 µM each time. Besides, the TGI in the assay with SF-539 CNS, in the assay on SNB-19 CNS, in the assay with U251 CNS and in the assay on UO-31 renal was above 100 µM each time.
As for `Cn1cnc([N+](=O)[O-])c1Sc1ncnc2c1ncn2C1OC(CO)C(O)C1O` (stereo not given), the GI50 in the assay with ACHN renal was 25.7 µM; in the assay on COLO 205 colon it was 15 µM; in the assay on HCT-15 colon, 11.6 µM; in the assay on HOP-62 NSCLC, 2 µM; in the assay with KM12 colon it was 6.34 µM; in the assay on NCI-H226 lung, 8.04 µM. The GI50 with SF-539 CNS was 4.11 µM; in the assay on SNB-19 CNS, above 100 µM; in the assay on U251 CNS, 8.79 µM; in the assay with UO-31 renal it was 7.1 µM. The TGI in the assay on ACHN renal is above 100 µM; in the assay on COLO 205 colon it was 61 µM; with HCT-15 colon, above 100 µM; in the assay on HOP-62 NSCLC it was above 100 µM; in the assay on KM12 colon, above 100 µM; in the assay on NCI-H226 lung, above 100 µM. Besides, the TGI with SF-539 CNS, in the assay with SNB-19 CNS, in the assay with U251 CNS and in the assay on UO-31 renal was above 100 µM each time.
Take `CCC1(CN(C)C)CC/C(=C\c2ccc3c(c2)OCO3)C1=O` (stereo not given): the TGI in the assay on ACHN renal, in the assay with COLO 205 colon, with HCT-15 colon, with HOP-62 NSCLC, with KM12 colon and in the assay with NCI-H226 lung was above 100 µM each time. The TGI in the assay with SF-539 CNS, in the assay with SNB-19 CNS, with U251 CNS and in the assay on UO-31 renal was above 100 µM throughout.
In the case of `COc1ccc(NC(=O)C(=O)C2NC(=S)NC2=O)c(OC)c1` (stereo not given), the TGI in the assay on ACHN renal, in the assay with COLO 205 colon, in the assay with HCT-15 colon, in the assay on HOP-62 NSCLC, with KM12 colon and with NCI-H226 lung was above 100 µM in each case. The TGI with SF-539 CNS, in the assay with SNB-19 CNS, in the assay with U251 CNS and in the assay on UO-31 renal was above 100 µM throughout.
In the case of `CN(C)c1ccc(/C=C/c2ccnc3ccccc23)cc1`, the GI50 in the assay on ACHN renal is 5.58 µM; in the assay with COLO 205 colon, 3.37 µM; in the assay on HCT-15 colon it was 3.76 µM; in the assay on HOP-62 NSCLC, 3.34 µM; with KM12 colon, 3.11 µM; in the assay with NCI-H226 lung it was 3 µM. For the same compound, the GI50 with SF-539 CNS is 3.14 µM; in the assay on SNB-19 CNS, 6.56 µM; in the assay on U251 CNS it was 4.04 µM; in the assay with UO-31 renal, 12.1 µM. In addition, the TGI is above 100 µM in the assay with ACHN renal; > 100 µM and 16 µM in the assay on COLO 205 colon; above 100 µM in the assay with HCT-15 colon; > 100 µM and 16.6 µM with HOP-62 NSCLC; > 100 µM and 33.7 µM in the assay with KM12 colon; 48 µM with NCI-H226 lung. Moreover, the TGI in the assay with SF-539 CNS is > 100 µM and 17.5 µM; in the assay on SNB-19 CNS, above 100 µM; with U251 CNS it was > 100 µM and 63.4 µM; in the assay on UO-31 renal, above 100 µM.
As for `C[Se]C(=O)CC1=C2C=C(F)C=CC2/C(=C\c2ccc(S(C)=O)cc2)C1C` (stereo not given), the GI50 is 0.154 µM in the assay with ACHN renal; 1.25 µM in the assay on COLO 205 colon; 0.0461 µM in the assay with HCT-15 colon; below 0.01 µM in the assay on HOP-62 NSCLC; 0.0853 µM in the assay with KM12 colon; below 0.0164 µM in the assay on NCI-H226 lung. Also, the GI50 with SF-539 CNS was 0.0371 µM; with SNB-19 CNS, 0.223 µM; in the assay with U251 CNS, below 0.0181 µM; in the assay on UO-31 renal, 0.036 µM. Moreover, the TGI with ACHN renal is 3.07 µM; in the assay on COLO 205 colon it was 6.36 µM; in the assay on HCT-15 colon it was 1.21 µM; in the assay with HOP-62 NSCLC it was 0.331 µM; with KM12 colon, 3.25 µM; with NCI-H226 lung, 0.317 µM. The TGI is 0.0923 µM with SF-539 CNS, 0.767 µM with SNB-19 CNS, 1.43 µM in the assay on U251 CNS and 0.179 µM with UO-31 renal.
